Data reported in patent US11420944B2, “Voltage-dependent t-type calcium channel blocker” (Nippon Chemiphar Co., Ltd., priority 2016, dated 2022).
Where two headings read alike, the source gives them in different places.

Biological target: T1, human Cav3.2 channels (Homo sapiens, UniProt O95180)
T1 construct: expressed in transfected cells; host or cells: HEK293 cells (ATCC No. CRL-1573), plasmid pcDNA3.1(+)
Test: Intracellular calcium concentration measurement (Fluo-4 AM) in stable cells expressing human Cav3.2 channels, buffer A / buffer B
Assay type: cell-based
Source text: Construction of Stable Cells Expressing Human Cav3.2 Channels
(1) A sequence produced by incorporating HindIII site and kozak sequence (GCCACC) into the 5′-terminal side of human Cav3.2 channel ORF (Open Reading Frame) gene and incorporating Kpnl site into the 3′-terminal side was incorporated into pcDNA3.1(+) (Thermo-Fisher Scientific, Inc., #V790-20), and the plasmid was transfected into HEK293 cells (ATCC No. CRL-1573) according to the protocol of FuGENE (registered trademark) HD Transfection Reagent (PROMEGA #E2311).
(2) Method for Measuring Intracellular Calcium Concentration
In the present measurement system, buffer A and buffer B having different potassium ion concentrations were used in order to evaluate the state-dependent Cav3.2 inhibitory action of a test compound.
Stable cell line expressing human Cav3.2 channels, which had been produced in (1), was seeded in a 96-well plate using DMEM medium including 10% FBS, and the cells were cultured for 48 hours under the conditions of 37° C. and 5% CO2. Subsequently, the medium was removed, and various wells that had been washed with a base buffer were treated with 80 μL of a fluorescent dye solution containing a mixed liquid of 22 μg of calcium fluorescence indicator Fluo-4 AM (Dojindo Laboratories Co., Ltd., #F311), 20 μL of DMSO, […] of 10% Pluronic F-127 (Thermo-Fisher Scientific, Inc., #P6866), and 4 mL of a base buffer. The cells were left to stand for 45 minutes at room temperature in the dark, and then the cells were washed with buffer A or buffer B. Solutions having various test compound concentrations and respectively containing buffer A or buffer B were added to the respective wells, the respective solutions containing DMSO at the same final concentration as that of the test compound as negative control, or containing the test compound dissolved in 100% DMSO at a final concentration of 0.1%. The cells were left to stand for another 15 minutes at room temperature in the dark, and the cells were analyzed using the following method using a microplate reader, EnVision (PerkinElmer, Inc.). First, the background fluorescence for each well was measured, subsequently an ionophore was added to the well, and the fluorescence of the baseline was measured. Subsequently, buffer A or buffer B containing added KCl at a concentration of 83.8 mM or 91.8 mM was added to each well, and an increase in fluorescence caused by a calcium influx generated by that stimulus was measured for 10 seconds. The percentage inhibition was calculated from the maximum fluorescence increment from the baseline, and the logarithmic value of the test compound concentration and the inhibitory activity were plotted to calculate the IC50 value. The analysis was carried out by measuring the fluorescence at 510 nm emitted when the cells were irradiated with exciting light at 485 nm.
Base buffer: 140 mM NaCl, 5 mM KCl, 1 mM MgCl2, 0.5 mM CaCl2, 10 mM Glucose, and 10 mM HEPES, pH 7.3
Buffer A: Equilibrium potential of potassium: −92 mV

[1] = Tables 2 to 6, buffer A, equilibrium potential of potassium −92 mV, read-out: Inhibitory action of buffer A (inactivated state)
[2] = Table 1, buffer A, equilibrium potential of potassium −92 mV, read-out: Inhibitory action of buffer A (inactivated state)
[3] = Table 1, buffer B, equilibrium potential of potassium −110 mV, read-out: Inhibitory action of buffer B (resting state or closed state)

T1 sequence (O95180 whole entry): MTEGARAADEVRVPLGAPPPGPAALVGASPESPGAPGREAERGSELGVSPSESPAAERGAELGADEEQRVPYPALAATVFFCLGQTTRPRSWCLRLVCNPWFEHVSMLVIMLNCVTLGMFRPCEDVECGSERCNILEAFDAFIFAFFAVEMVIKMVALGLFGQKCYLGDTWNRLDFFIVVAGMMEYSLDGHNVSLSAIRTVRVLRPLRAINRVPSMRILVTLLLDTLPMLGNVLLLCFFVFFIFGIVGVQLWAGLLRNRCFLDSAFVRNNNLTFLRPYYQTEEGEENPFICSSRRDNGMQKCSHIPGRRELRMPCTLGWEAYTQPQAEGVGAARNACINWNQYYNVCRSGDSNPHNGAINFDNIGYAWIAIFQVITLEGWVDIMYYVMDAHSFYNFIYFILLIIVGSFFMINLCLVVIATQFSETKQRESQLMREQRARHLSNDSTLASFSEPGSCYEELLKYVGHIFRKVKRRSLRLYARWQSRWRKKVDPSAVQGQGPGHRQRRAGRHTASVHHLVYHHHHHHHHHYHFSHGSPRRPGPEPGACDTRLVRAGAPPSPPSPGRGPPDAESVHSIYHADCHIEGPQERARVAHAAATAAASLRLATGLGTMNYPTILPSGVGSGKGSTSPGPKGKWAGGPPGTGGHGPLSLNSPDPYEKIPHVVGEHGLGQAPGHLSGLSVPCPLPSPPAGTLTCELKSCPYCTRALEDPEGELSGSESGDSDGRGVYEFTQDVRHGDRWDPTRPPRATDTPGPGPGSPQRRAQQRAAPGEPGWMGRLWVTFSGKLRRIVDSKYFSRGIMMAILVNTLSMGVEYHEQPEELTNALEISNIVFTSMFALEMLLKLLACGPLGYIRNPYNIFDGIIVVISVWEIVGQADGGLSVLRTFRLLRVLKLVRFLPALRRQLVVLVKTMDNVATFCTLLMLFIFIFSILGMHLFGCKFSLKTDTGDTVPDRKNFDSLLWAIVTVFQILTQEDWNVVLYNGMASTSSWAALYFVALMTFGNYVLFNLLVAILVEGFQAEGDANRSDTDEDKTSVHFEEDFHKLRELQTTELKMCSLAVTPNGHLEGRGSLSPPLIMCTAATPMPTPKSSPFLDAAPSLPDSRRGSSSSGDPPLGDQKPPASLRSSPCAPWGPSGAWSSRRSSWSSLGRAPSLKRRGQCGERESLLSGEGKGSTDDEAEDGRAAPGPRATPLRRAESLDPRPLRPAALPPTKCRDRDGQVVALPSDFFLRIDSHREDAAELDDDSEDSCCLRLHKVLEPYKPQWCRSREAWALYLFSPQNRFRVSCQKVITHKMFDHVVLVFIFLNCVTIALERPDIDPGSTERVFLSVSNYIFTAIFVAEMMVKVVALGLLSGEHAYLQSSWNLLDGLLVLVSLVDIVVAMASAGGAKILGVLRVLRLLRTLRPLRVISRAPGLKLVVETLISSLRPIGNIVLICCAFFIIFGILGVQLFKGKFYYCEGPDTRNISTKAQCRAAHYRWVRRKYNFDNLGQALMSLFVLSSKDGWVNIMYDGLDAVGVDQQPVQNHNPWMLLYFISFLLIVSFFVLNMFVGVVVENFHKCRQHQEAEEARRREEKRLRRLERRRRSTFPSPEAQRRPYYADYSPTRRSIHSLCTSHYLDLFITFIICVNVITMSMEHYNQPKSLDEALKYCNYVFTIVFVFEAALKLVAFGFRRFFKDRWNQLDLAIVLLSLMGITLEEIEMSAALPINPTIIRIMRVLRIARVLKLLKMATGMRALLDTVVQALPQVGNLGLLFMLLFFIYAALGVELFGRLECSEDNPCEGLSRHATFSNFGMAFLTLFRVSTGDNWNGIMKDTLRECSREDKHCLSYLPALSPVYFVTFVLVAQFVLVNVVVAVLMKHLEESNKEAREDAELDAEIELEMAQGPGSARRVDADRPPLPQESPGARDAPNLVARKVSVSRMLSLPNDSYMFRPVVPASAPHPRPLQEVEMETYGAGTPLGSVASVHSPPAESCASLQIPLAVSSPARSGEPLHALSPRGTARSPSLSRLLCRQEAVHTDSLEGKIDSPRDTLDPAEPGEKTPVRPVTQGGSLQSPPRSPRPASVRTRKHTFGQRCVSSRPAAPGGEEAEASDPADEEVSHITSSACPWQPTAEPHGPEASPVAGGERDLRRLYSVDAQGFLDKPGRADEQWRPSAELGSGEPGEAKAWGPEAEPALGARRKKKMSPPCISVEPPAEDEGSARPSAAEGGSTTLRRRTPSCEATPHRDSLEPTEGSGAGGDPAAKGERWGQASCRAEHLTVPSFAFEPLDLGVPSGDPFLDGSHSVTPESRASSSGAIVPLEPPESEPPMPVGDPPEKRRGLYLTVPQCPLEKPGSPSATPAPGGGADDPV

Row | Compound | IC50 [1] | IC50 [2] | IC50 [3]
1 | CC(C)[C@@H](NC(=O)[C@H]1C[C@@H]1c1nc2ccccc2[nH]1)c1cc2ccc(F)cc2s1 [Example 120, (1S,2S)-2-(1H-benzo[d]imidazol-2-yl)-N—((R)-1-(6-fluorobenzo[b]thiophen-2-yl)-2-methylpropyl)cyclopropane-1-carboxamide] | 100 to 1000 nM |  | 
2 | C[C@@H](NC(=O)C1CC1c1ccc2cnn(C)c2c1)c1cc2cc(F)ccc2o1 (single isomer, unassigned) [Example 103A] | 100 to 1000 nM |  | 
3 | C[C@@H](NC(=O)[C@@H]1CCN(c2nc3ccccc3s2)C1)c1cc2cc(F)ccc2o1 [Example 126, (R)-1-(benzo[d]thiazol-2-yl)-N—((R)-1-(5-fluorobenzofuran-2-yl)ethyl)pyrrolidine-3-carboxamide] | 100 to 1000 nM |  | 
4 | C[C@@H](NC(=O)[C@@H]1CCN(CC(=O)Nc2nccs2)C1)c1ccc(OCC(F)(F)F)s1 [Example 16, (R)-1-(2-oxoethyl-2-(thiazol-2-ylamino)ethyl)-N—((R)-1-(5-(2,2,2-trifluoroethoxy)thiophen-2-yl)ethyl)pyrrolidine-3-carboxamide] |  | 100 to 1000 nM | 1000 to 10000 nM
5 | C[C@@H](NC(=O)[C@H]1C[C@@H]1c1nc2ccccc2[nH]1)c1ccc(C(=O)N2CCC(F)(F)CC2)s1 [Example 94, (1S,2S)-2-(1H-benzo[d]imidazol-2-yl)-N—((R)-1-(5-(4,4-difluoropiperidine-1-carbonyl)thiophen-2-yl)ethyl)cyclopropane-1-carboxamide] | 100 to 1000 nM |  | 
6 | C[C@@H](NC(=O)[C@H]1C[C@@H]1c1nc2ccccc2[nH]1)c1ccc2c(c1)OCO2 [Example 55, (1S,2S)—N—((R)-1-(benzo[d][1,3]dioxol-5-yl)ethyl)-2-(1H-benzo[d]imidazol-2-yl)cyclopropane-1-carboxamide] | 100 to 1000 nM |  | 
7 | C[C@@H](NC(=O)[C@@H]1C[C@H]1c1nc2ccccc2[nH]1)c1ccc(C(=O)OC(C)(C)C)s1 [Example 25B, Trans-5-((1R)-1-(2-(1H-benzo[d]imidazol-2-yl)cyclopropane-1-carboxamido)ethyl)thiophene-2-carboxylic acid tert-butyl ester] | 1000 to 10000 nM |  | 
8 | C[C@@H](NC(=O)C1CC1c1nc2ccccc2[nH]1)c1ccc(Br)s1 (single isomer, unassigned) [Example 6A] |  | 100 to 1000 nM | 1000 to 10000 nM
9 | C[C@@H](NC(=O)[C@H]1C[C@@H]1c1nc2ccccc2[nH]1)c1nc(C2CC2)no1 [Example 72, (1S,2S)-2-(1H-benzo[d]imidazol-2-yl)-N—((R)-1-(3-cyclopropyl-1,2,4-oxadiazol-5-yl)ethyl)cyclopropane-1-carboxamide] | 1000 to 10000 nM |  | 
10 | C[C@@H](NC(=O)[C@H]1C[C@@H]1c1nc2ccccc2[nH]1)c1ccc2ccn(C)c2c1 [Example 86, (1S,2S)-2-(1H-benzo[d]imidazol-2-yl)-N—((R)-1-(1-methyl-1H-indol-6-yl)ethyl)cyclopropane-1-carboxamide] | 1000 to 10000 nM |  | 
11 | CC(NC(=O)C1CC1c1nc2ccccc2[nH]1)c1cn(C(=O)OC(C)(C)C)c2ccccc12 (stereo not drawn) [Example 10, Trans-3-(1-(2-(1H-benzo[d]imidazol-2-yl)cyclopropanecarboxamido)ethyl)-1H-indole-1-carboxylic acid tert-butyl ester] |  | 100 to 1000 nM | 100 to 1000 nM
12 | C[C@@H](NC(=O)[C@H]1C[C@@H]1c1nc2ccccc2[nH]1)c1cnc(-c2ccccc2)s1 [Example 89, (1S,2S)-2-(1H-benzo[d]imidazol-2-yl)-N—((R)-1-(2-phenylthiazol-5-yl)ethyl)cyclopropane-1-carboxamide] | 100 to 1000 nM |  | 
13 | O=C(N[C@@H](c1ccc(C(F)(F)F)s1)C1CC1)[C@H]1C[C@@H]1c1nc2ccccc2[nH]1 [Example 69, (1S,2S)-2-(1H-benzo[d]imidazol-2-yl)-N—((R)-cyclopropyl(5-(trifluoromethyl)thiophen-2-yl)methyl)cyclopropane-1-carboxamide] | 100 to 1000 nM |  | 
14 | O=C(NCc1cc2cc(F)ccc2o1)[C@H]1C[C@@H]1c1nc2ccccc2[nH]1 [Example 113, (1S,2S)-2-(1H-benzo[d]imidazol-2-yl)-N-((5-fluorobenzofuran-2-yl)methyl)cyclopropane-1-carboxamide] | ≤ 100 nM |  | 
15 | CCn1c([C@H]2C[C@@H]2C(=O)N[C@H](C)c2cc3ccc(F)cc3o2)nc2ccccc21 [Example 110, (1S,2S)-2-(1-ethyl-1H-benzo[d]imidazol-2-yl)-N—((R)-1-(6-fluorobenzofuran-2-yl)ethyl)cyclopropane-1-carboxamide] | ≤ 100 nM |  | 
16 | C[C@@H](NC(=O)[C@H]1C[C@@H]1c1nc2ccccc2[nH]1)c1cc2cccc(F)c2o1 [Example 96, (1S,2S)-2-(1H-benzo[d]imidazol-2-yl)-N—((R)-1-(7-fluorobenzofuran-2-yl)ethyl)cyclopropane-1-carboxamide] | 100 to 1000 nM |  | 
17 | CCn1c(C2CC2C(=O)N[C@H](C)c2cnc(OCC(F)(F)F)s2)nc2ccccc21 (single isomer, unassigned) [Example 57A] | 100 to 1000 nM |  | 
18 | C[C@@H](NC(=O)C1CC1c1ncc2ccccn12)c1cc2cc(F)ccc2o1 (single isomer, unassigned) [Example 117B] | 1000 to 10000 nM |  | 
19 | C[C@@H](NC(=O)[C@H]1C[C@@H]1c1nc2ccccc2[nH]1)c1cc2cc(C#N)ccc2o1 [Example 107, (1S,2S)-2-(1H-benzo[d]imidazol-2-yl)-N—((R)-1-(5-cyanobenzofuran-2-yl)ethyl)cyclopropane-1-carboxamide] | 100 to 1000 nM |  | 
20 | C[C@@H](NC(=O)C1CC1c1nc2ccccc2[nH]1)c1ccc(C(=O)N2CCN(C)CC2)s1 (stereo in doubt) [Example 68, Trans-2-(1H-benzo[d]imidazol-2-yl)-N—((R)-1-(5-(4-methylpiperazine-1-carbonyl)thiophen-2-yl)ethyl)cyclopropane-1-carboxamide] | 1000 to 10000 nM |  | 
21 | C[C@@H](NC(=O)[C@@H]1CCN(c2ccc(C(F)(F)F)cn2)C1)c1cc2cc(F)ccc2o1 [Example 121, (R)—N—((R)-1-(5-fluorobenzofuran-2-yl)ethyl)-1-(5-(trifluoromethyl)pyridin-2-yl)pyrrolidine-3-carboxamide] | > 10000 nM |  | 

Continued, values first:

Row | IC50 [1] | IC50 [2] | IC50 [3] | Compound
22 |  | 1000 to 10000 nM | > 10000 nM | C[C@@H](NC(=O)C1CC1c1nc2ccccc2n1C)c1ccc(OCC(F)(F)F)s1 (single isomer, unassigned) [Example 4B]
23 | 100 to 1000 nM |  |  | COc1ccc2[nH]c(C3CC3C(=O)N[C@H](C)c3ccc(OCC(F)(F)F)s3)nc2c1 (single isomer, unassigned) [Example 71A]
24 |  | 1000 to 10000 nM | > 10000 nM | C[C@H](NC(=O)C1CC1c1nc2ccccc2[nH]1)c1ccc(OCC(F)(F)F)s1 (single isomer, unassigned) [Example 2B]
25 |  | 1000 to 10000 nM | > 10000 nM | C[C@H](NC(=O)C1CC1c1nc2ccccc2[nH]1)c1ccc(OCC(F)(F)F)s1 (single isomer, unassigned) [Example 2A]
26 | > 10000 nM |  |  | C[C@@H](NC(=O)C1CC1c1cn(C)c2ccccc12)c1ccc(OCC(F)(F)F)s1 (single isomer, unassigned) [Example 29B]
27 | > 10000 nM |  |  | C[C@@H](NC(=O)C1CC1c1nccn1Cc1ccccc1)c1ccc(OCC(F)(F)F)s1 (single isomer, unassigned) [Example 38A]
28 | > 10000 nM |  |  | C[C@@H](NC(=O)C1CC1c1nccn1Cc1ccccc1)c1ccc(OCC(F)(F)F)s1 (single isomer, unassigned) [Example 38B]
29 | 100 to 1000 nM |  |  | C[C@@H](NC(=O)C1CC1c1nc2c(Cl)cccc2[nH]1)c1ccc(OCC(F)(F)F)s1 (single isomer, unassigned) [Example 122B]
30 | 1000 to 10000 nM |  |  | Cc1ccc2nc(C3CC3C(=O)N[C@H](C)c3ccc(OCC(F)(F)F)s3)[nH]c2n1 (single isomer, unassigned) [Example 106B]
31 | > 10000 nM |  |  | C[C@@H](NC(=O)C1CC1c1cc(F)cc(F)c1)c1ccc(OCC(F)(F)F)s1 (single isomer, unassigned) [Example 19B]
32 | > 10000 nM |  |  | C[C@@H](NC(=O)C1CC1c1ccccn1)c1ccc(OCC(F)(F)F)s1 (single isomer, unassigned) [Example 23B]
